Data: PubChem BioAssay AID1259407 (Chemical Carcinogenesis Research Information System (CCRIS), 2018)
Calls of active or inactive are those of the source. No rule for the calls is given here.

Tested on: CCRIS mutagenicity, Ames/micronucleus/aberration tests
Assay: CCRIS mutagenicity studies
[1] = Test System: AMES SALMONELLA TYPHIMURIUM, Strain/Indicator: TA98, Metabolic Activation: NONE, Method: PREINCUBATION
[2] = Test System: AMES SALMONELLA TYPHIMURIUM, Strain/Indicator: TA100, Metabolic Activation: NONE, Method: PREINCUBATION
[3] = Test System: AMES SALMONELLA TYPHIMURIUM, Strain/Indicator: TA1537, Metabolic Activation: NONE, Method: PREINCUBATION
[4] = Test System: AMES SALMONELLA TYPHIMURIUM, Strain/Indicator: TA98, Metabolic Activation: NONE, Method: STANDARD PLATE
[5] = Test System: AMES SALMONELLA TYPHIMURIUM, Strain/Indicator: TA100, Metabolic Activation: NONE, Method: STANDARD PLATE
[6] = Test System: AMES SALMONELLA TYPHIMURIUM, Strain/Indicator: TA102, Metabolic Activation: NONE, Method: STANDARD PLATE

Question: Which results are given for BrCCCCCBr?
Answer: mutagenic call [1]: inactive; negative; mutagenic call (Test System: AMES SALMONELLA TYPHIMURIUM, Strain/Indicator: TA98, Metabolic Activation: RAT LIVER S-9, PHENOBARBITAL AND BETA-NAPHTHOFLAVONE, Method: PREINCUBATION): inactive; negative; mutagenic call [2]: inactive; negative; mutagenic call (Test System: AMES SALMONELLA TYPHIMURIUM, Strain/Indicator: TA100, Metabolic Activation: RAT LIVER S-9, PHENOBARBITAL AND BETA-NAPHTHOFLAVONE, Method: PREINCUBATION): inactive; negative; mutagenic call [3]: inactive; negative; mutagenic call (Test System: AMES SALMONELLA TYPHIMURIUM, Strain/Indicator: TA1537, Metabolic Activation: RAT LIVER S-9, PHENOBARBITAL AND BETA-NAPHTHOFLAVONE, Method: PREINCUBATION): inactive; negative

Question: Which results are given for Cn1c2ccccc2c2nn[n+]([O-])c(C(=O)OCCCl)c21?
Answer: mutagenic call (Test System: AMES SALMONELLA TYPHIMURIUM, Strain/Indicator: TA97, Metabolic Activation: NONE, Method: STANDARD PLATE): active; positive; mutagenic call (Test System: AMES SALMONELLA TYPHIMURIUM, Strain/Indicator: TA97, Metabolic Activation: RAT, LIVER, S-9, AROCLOR 1254 (4%, 10%), Method: STANDARD PLATE): active; positive; mutagenic call [4]: active; positive; mutagenic call (Test System: AMES SALMONELLA TYPHIMURIUM, Strain/Indicator: TA98, Metabolic Activation: RAT, LIVER, S-9, AROCLOR 1254 (4%, 10%), Method: STANDARD PLATE): active; positive; mutagenic call [5]: inactive; negative; mutagenic call (Test System: AMES SALMONELLA TYPHIMURIUM, Strain/Indicator: TA100, Metabolic Activation: RAT, LIVER, S-9, AROCLOR 1254 (4%, 10%), Method: STANDARD PLATE): inactive; negative; mutagenic call [6]: inactive; negative; mutagenic call (Test System: AMES SALMONELLA TYPHIMURIUM, Strain/Indicator: TA102, Metabolic Activation: RAT, LIVER, S-9, AROCLOR 1254 (4%, 10%), Method: STANDARD PLATE): inactive; negative

Question: For CNC(=O)c1c(N(C)N=O)ncn1C, which mutagenic call [4] is on record?
Answer: inactive; negative

Question: And the mutagenic call (Test System: AMES SALMONELLA TYPHIMURIUM, Strain/Indicator: TA98, Metabolic Activation: S-9, Method: PREINCUBATION)?
Answer: inactive; negative

Question: And the mutagenic call (Test System: AMES SALMONELLA TYPHIMURIUM, Strain/Indicator: TA98, Metabolic Activation: S-9, Method: STANDARD PLATE)?
Answer: inactive; negative

Question: What about the mutagenic call [5] of the same molecule?
Answer: inactive; negative

Question: And the mutagenic call (Test System: AMES SALMONELLA TYPHIMURIUM, Strain/Indicator: TA100, Metabolic Activation: S-9, Method: PREINCUBATION)?
Answer: inactive; negative

Question: What about the mutagenic call (Test System: AMES SALMONELLA TYPHIMURIUM, Strain/Indicator: TA100, Metabolic Activation: S-9, Method: STANDARD PLATE) of the same molecule?
Answer: inactive; negative

Question: What about the mutagenic call [6] of the same molecule?
Answer: inactive; negative

Question: What about the mutagenic call (Test System: AMES SALMONELLA TYPHIMURIUM, Strain/Indicator: TA102, Metabolic Activation: S-9, Method: PREINCUBATION) of the same molecule?
Answer: inactive; negative

Question: What about the mutagenic call (Test System: AMES SALMONELLA TYPHIMURIUM, Strain/Indicator: TA102, Metabolic Activation: S-9, Method: STANDARD PLATE) of the same molecule?
Answer: inactive; negative

Question: And the mutagenic call (Test System: AMES SALMONELLA TYPHIMURIUM, Strain/Indicator: TA1535, Metabolic Activation: NONE, Method: STANDARD PLATE)?
Answer: inactive; negative

Question: And the mutagenic call (Test System: AMES SALMONELLA TYPHIMURIUM, Strain/Indicator: TA1535, Metabolic Activation: S-9, Method: PREINCUBATION)?
Answer: inactive; negative

Question: And the mutagenic call (Test System: AMES SALMONELLA TYPHIMURIUM, Strain/Indicator: TA1535, Metabolic Activation: S-9, Method: STANDARD PLATE)?
Answer: inactive; negative

Question: What about the mutagenic call (Test System: AMES SALMONELLA TYPHIMURIUM, Strain/Indicator: TA1537, Metabolic Activation: NONE, Method: STANDARD PLATE) of the same molecule?
Answer: inactive; negative

Question: And the mutagenic call (Test System: AMES SALMONELLA TYPHIMURIUM, Strain/Indicator: TA1537, Metabolic Activation: S-9, Method: PREINCUBATION)?
Answer: inactive; negative

Question: And the mutagenic call (Test System: AMES SALMONELLA TYPHIMURIUM, Strain/Indicator: TA1537, Metabolic Activation: S-9, Method: STANDARD PLATE)?
Answer: inactive; negative

Question: Which mutagenic call (End Point: IN VITRO CHROMOSOMAL ABERRATIONS, Test System: CHINESE HAMSTER OVARY CELLS, Metabolic Activation: NONE) does the source give for CC(C)[N+](C)(CCOC(=O)C1c2ccccc2Oc2ccccc21)C(C)C here?
Answer: inactive; negative

Question: And the mutagenic call (End Point: IN VITRO CHROMOSOMAL ABERRATIONS, Test System: CHINESE HAMSTER OVARY CELLS, Metabolic Activation: RAT, LIVER, S-9, AROCLOR 1254)?
Answer: inactive; negative

Question: And the mutagenic call (Test System: AMES SALMONELLA TYPHIMURIUM, Strain/Indicator: TA97, Metabolic Activation: HAMSTER, LIVER, S-9, AROCLOR 1254 (10 OR 30%), Method: PREINCUBATION)?
Answer: inactive; negative

Question: What about the mutagenic call (Test System: AMES SALMONELLA TYPHIMURIUM, Strain/Indicator: TA97, Metabolic Activation: NONE, Method: PREINCUBATION) of the same molecule?
Answer: inactive; negative

Question: What about the mutagenic call (Test System: AMES SALMONELLA TYPHIMURIUM, Strain/Indicator: TA97, Metabolic Activation: RAT, LIVER, S-9, AROCLOR 1254 (10%), Method: PREINCUBATION) of the same molecule?
Answer: inactive; negative

Question: What about the mutagenic call (Test System: AMES SALMONELLA TYPHIMURIUM, Strain/Indicator: TA97, Metabolic Activation: RAT, LIVER, S-9, AROCLOR 1254 (30%), Method: PREINCUBATION) of the same molecule?
Answer: inactive; negative

Question: And the mutagenic call (Test System: AMES SALMONELLA TYPHIMURIUM, Strain/Indicator: TA98, Metabolic Activation: HAMSTER, LIVER, S-9, AROCLOR 1254 (10%), Method: PREINCUBATION)?
Answer: inactive; negative

Question: What about the mutagenic call (Test System: AMES SALMONELLA TYPHIMURIUM, Strain/Indicator: TA98, Metabolic Activation: HAMSTER, LIVER, S-9, AROCLOR 1254 (30%), Method: PREINCUBATION) of the same molecule?
Answer: inactive; negative

Question: What about the mutagenic call [1] of the same molecule?
Answer: inactive; negative

Question: What about the mutagenic call (Test System: AMES SALMONELLA TYPHIMURIUM, Strain/Indicator: TA98, Metabolic Activation: RAT, LIVER, S-9, AROCLOR 1254 (10%), Method: PREINCUBATION) of the same molecule?
Answer: inactive; negative

Question: And the mutagenic call (Test System: AMES SALMONELLA TYPHIMURIUM, Strain/Indicator: TA98, Metabolic Activation: RAT, LIVER, S-9, AROCLOR 1254 (30%), Method: PREINCUBATION)?
Answer: inactive; negative

Question: And the mutagenic call (Test System: AMES SALMONELLA TYPHIMURIUM, Strain/Indicator: TA100, Metabolic Activation: HAMSTER, LIVER, S-9, AROCLOR 1254 (10%), Method: PREINCUBATION)?
Answer: inactive; negative

Question: What about the mutagenic call (Test System: AMES SALMONELLA TYPHIMURIUM, Strain/Indicator: TA100, Metabolic Activation: HAMSTER, LIVER, S-9, AROCLOR 1254 (30%), Method: PREINCUBATION) of the same molecule?
Answer: inactive; negative

Question: What about the mutagenic call [2] of the same molecule?
Answer: inactive; negative

Question: And the mutagenic call (Test System: AMES SALMONELLA TYPHIMURIUM, Strain/Indicator: TA100, Metabolic Activation: RAT, LIVER, S-9, AROCLOR 1254 (10%), Method: PREINCUBATION)?
Answer: inactive; negative

Question: What about the mutagenic call (Test System: AMES SALMONELLA TYPHIMURIUM, Strain/Indicator: TA100, Metabolic Activation: RAT, LIVER, S-9, AROCLOR 1254 (30%), Method: PREINCUBATION) of the same molecule?
Answer: inactive; negative

Question: What about the mutagenic call (Test System: AMES SALMONELLA TYPHIMURIUM, Strain/Indicator: TA1535, Metabolic Activation: HAMSTER, LIVER, S-9, AROCLOR 1254 (10%), Method: PREINCUBATION) of the same molecule?
Answer: inactive; negative

Question: What about the mutagenic call (Test System: AMES SALMONELLA TYPHIMURIUM, Strain/Indicator: TA1535, Metabolic Activation: HAMSTER, LIVER, S-9, AROCLOR 1254 (30%), Method: PREINCUBATION) of the same molecule?
Answer: inactive; negative

Question: And the mutagenic call (Test System: AMES SALMONELLA TYPHIMURIUM, Strain/Indicator: TA1535, Metabolic Activation: NONE, Method: PREINCUBATION)?
Answer: inactive; negative

Question: What about the mutagenic call (Test System: AMES SALMONELLA TYPHIMURIUM, Strain/Indicator: TA1535, Metabolic Activation: RAT, LIVER, S-9, AROCLOR 1254 (10%), Method: PREINCUBATION) of the same molecule?
Answer: inactive; negative

Question: And the mutagenic call (Test System: AMES SALMONELLA TYPHIMURIUM, Strain/Indicator: TA1535, Metabolic Activation: RAT, LIVER, S-9, AROCLOR 1254 (30%), Method: PREINCUBATION)?
Answer: inactive; negative

Question: And the mutagenic call (Test System: AMES SALMONELLA TYPHIMURIUM, Strain/Indicator: TA1537, Metabolic Activation: HAMSTER, LIVER, S-9, AROCLOR 1254 (10%), Method: PREINCUBATION)?
Answer: inactive; negative

Question: What about the mutagenic call [3] of the same molecule?
Answer: inactive; negative

Question: What about the mutagenic call (Test System: AMES SALMONELLA TYPHIMURIUM, Strain/Indicator: TA1537, Metabolic Activation: RAT, LIVER, S-9, AROCLOR 1254 (10%), Method: PREINCUBATION) of the same molecule?
Answer: inactive; negative
